Read-outs that look alike come from different tables or passages of the source.
Columns and labels:
[1] = tested on: A549 cells; experiment: Cell proliferation PAD assay, A549; assay type: cell-based; conditions: Homo sapiens, 48 hours
Procedure: (§1) Cell lines used are available from American Type Culture Collection (ATCC), for example, cell cultures containing A549 (ATCC# CCL-185), HeLa (ATCC# CCL-2), HCT116 ATTC# CCL-247), and H1299 (ATCC# CRL-5803) cells were maintained in T175 flasks following the ATCC recommended media and handling procedures. […] A 20,000 cells/ml solution was made for plating. Cells were plated in black Packard 96 well plates by placing 100 μl per well (2,000 cells per well). […] The definitions of the cell types used are as follows: A549 is lung carcinoma; HI 299 is non-small cell lung carcinoma; HI 155 is non-small cell lung carcinoma; AsPC-1 is pancreatic adenocarcinoma; Caov-3 is ovarian adenocarcinoma; COLO 205 is colorectal adenocarcinoma; DLD-1 colorectal adenocarcinoma; HCT116 is colorectal carcinoma; DU 145 is prostate carcinoma; ES-2 is ovarian clear cell carcinoma; H460 is large cell lung carcinoma; HELA is cervical adenocarcinoma; MIA PaCa-2 is pancreatice carcinoma; OVCAR-3 is ovarian adenocarcinoma; OVCAR8 is ovarian carcinoma; PC3 is prostate adenocarcinoma; SK-OV-3 is ovarian adenocarcinoma; SU86.86 is pancreatic carcinoma; TOV-21G is avarian clear cell carcinoma; U2OS is bone osteosarcoma; is ASPC-I is pancreatic adenocarcinoma; BXPC-3 is pabcreatic adenocarcinoma; HL60 is promyeloblast promyelocytic leukemia; K562 is bone marrow chronic myelogenous leukemia; L1210 is mouse lymphocytic leukemia; MOLT3 is T lymphoblast acute lymphoblastic leukemia; MOLT4 is T lymphoblast acute lymphoblastic leukemia; SW620 is colorectal adenocarcinoma; THP-1 is monocyte acute monocytic leukemia; U937 is histiocytic lymphoma; and UACC-257 is melanoma.
(§2) Compounds and additional media were added 24 hours after cell plating. […] All compound testing was done in duplicate using 6.3 fold dilutions starting with 10 mM. […] Taxol and at least one additional control were run on all plates. Three microliters of the compound master plate were added to deep well blocks containing 750 μl of RPMI media. One hundred microliters were transferred from the compound/media deep well blocks to the plated cells resulting in a 500 fold dilution of the compounds. Cells were grown at 37° C., 5% CO2 for 48 hours.
(§3) Cells to be analyzed by photography were fixed and stained. One hundred microliters of media were removed and 100 μl of 9.3% formamide was added to each well. Plates were left on the benchtop for 45 minutes. A staining solution containing 1.55 μl of 1 mg/ml DAPI added to 18.75 ml PBS was warmed for 15 minutes at 37° C. The cells were aspirated prior to washing with 100 μl of PBS. Seventy microliters of PBS were aspirated and 170 μl of the DAPI solution were added to each well of fixed cells. Plates were left at room temperature for one hour then aspirated and washed twice with 100 μl of PBS. The stained cells were left at 4° C. for a minimum of 16 hours before photographic analysis with Array Scan II (Cellomics). Analysis of the photographic images to determine numbers of live cells (proliferation), apoptotic cells and dead cells, were according to the methods described in U.S. Utility patent application Ser. No. 10/652,440, which incorporated herein in its entirety.

[2] = molecular target: T1, TRAF6/Uev1A/Ubc13 (Homo sapiens, UniProt Q9Y4K3); experiment: TRAF6/Uev1A/Ubc13 plate-based ubiquitin ligase assay; assay type: biochemical
T1 sequence (Q9Y4K3 1-522): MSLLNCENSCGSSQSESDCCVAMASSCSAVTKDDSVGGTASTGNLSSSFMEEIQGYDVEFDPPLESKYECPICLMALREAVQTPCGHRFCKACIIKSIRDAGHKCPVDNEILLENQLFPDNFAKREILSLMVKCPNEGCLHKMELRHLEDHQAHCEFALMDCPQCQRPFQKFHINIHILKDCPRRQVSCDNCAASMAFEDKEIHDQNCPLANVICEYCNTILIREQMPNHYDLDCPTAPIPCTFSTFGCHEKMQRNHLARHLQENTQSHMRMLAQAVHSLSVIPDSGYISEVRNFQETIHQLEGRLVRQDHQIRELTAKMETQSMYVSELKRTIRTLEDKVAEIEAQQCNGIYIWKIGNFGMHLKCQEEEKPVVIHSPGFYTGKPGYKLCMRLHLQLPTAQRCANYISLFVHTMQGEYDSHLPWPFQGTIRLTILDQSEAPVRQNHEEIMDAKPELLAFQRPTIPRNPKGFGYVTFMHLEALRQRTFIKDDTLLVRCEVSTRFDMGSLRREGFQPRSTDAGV
Procedure: For the assays described below, the TRAF6/Uev1A/UBC13 assay is the biochemical plate-based assay of TRAF6 ligase activity using Ubc13 as the E2 enzyme. The gel-based assay is the biochemical solution-based TRAF6 ligase assay (by SDS-PAGE and Western blot) to confirm the plate-based ELISA assay. The APC assay is an assay which is another E3 ligase (APC2/APC11) biochemical assay.
A 96-well Ni-plate was blocked with 100 μl of 1% casein in PBS for 1 hour at room temperature. The plates were then washed three times with 200 μl of 1×PBS and 80 μl of a reaction buffer was added per well which contained 50 ng of Flag-ubiquitin, 50 ng of His-ubiquitin, 62.5 mM Tris pH 7.5, 6.25 mM MgCl2, 1.0 mM DTT, and 2 μM ATP. To each well was added 10 μl of a solution of the compound in DMSO. The reaction was started by adding 10 μl of a solution consisting of 10 ng human E1, 25 ng each of Uev1a and Ubc13, and 100 ng TRAF6 in the reaction buffer. The plates were shaken for 10 minutes and incubate at room temperature for 1 hour. After the incubation, the plates were washed three times with 200 μl 1×PBS in 0.05% Tween and 100 μl of an antibody mix consisting of anti-Flag (1:30,000 dilution; Sigma F-3165) and anti-Mouse IgG-HRP (1/150,000 dilution; Jackson Immunoresearch #115-035-146) in 1×PBS with 0.25% BSA. The plates were then incubated for another 1 hour at room temperature, and after incubation the plate was washed three times with 200 μl 1×PBS with 0.05% Tween. The amount of ubiquitin was measured by adding 100 μl of Lumino substrate (1:5 dilution) and reading the luminescence with a fluorimeter.
Table 2 below illustrates the inhibitory activity of the compounds of the invention determined by the TRAF6/Uev1A/Ubc13 assay as well as in the ICAM, APC and the ROC1/CUL1 Ubiquitin Ligase Assay (SCF Assay). The IC50 values were determined using a various concentrations of the compounds.

[3] = tested on: H1299 cells; experiment: Cell proliferation PAD assay, H1299; assay type: cell-based; conditions: Homo sapiens, NCI-H1299, 3pt, 48 hours, read-out: H1299 3pt
Procedure: as §1, §2, §3

Row | SMILES | IC50 ([1]; 3pt, read-out: A549 3pt) [µM] | IC50 [2] [µM] | IC50 [3] [µM] | IC50 ([1]; 6pt, read-out: A549 6pt) [µM]
1 | COC(=O)c1ccc(NS(=O)(=O)c2ccc(Cl)c3nonc23)cc1 [compound 8, Methyl 4-{[(7-chloro-2,1,3-benzoxadiazol-4-yl)sulfonyl]amino}benzoate] | ≥ 20 | ≥ 20 |  | 
2 | O=S(=O)(Nc1ccc(F)c(Cl)c1)c1cccc2nonc12 [compound 14, N-(3-chloro-4-fluorophenyl)-2,1,3-benzoxadiazole-4-sulfonamide] | ≥ 20 |  | ≥ 20 | 
3 | O=S(=O)(Nc1c(F)cccc1F)c1cccc2nonc12 [compound 15, N-(2,6-difluorophenyl)-2,1,3-benzoxadiazole-4-sulfonamide] | ≥ 20 |  | 1 to 20 | 
4 | O=S(=O)(Nc1c(F)cc(F)cc1F)c1cccc2nonc12 [compound 16, N-(2,4,6-trifluorophenyl)-2,1,3-benzoxadiazole-4-sulfonamide] | ≥ 20 |  | ≥ 20 | 
5 | Cc1cc(NS(=O)(=O)c2cccc3nonc23)ccc1I [compound 18, N-(4-iodo-3-methylphenyl)-2,1,3-benzoxadiazole-4-sulfonamide] | ≥ 20 |  | ≥ 20 | 
6 | Cc1cc(F)ccc1NS(=O)(=O)c1cccc2nonc12 [compound 19, N-(4-fluoro-2-methylphenyl)-2,1,3-benzoxadiazole-4-sulfonamide] | ≥ 20 |  | ≥ 20 | 
7 | Cc1ccc(C)c(NS(=O)(=O)c2cccc3nonc23)c1 [compound 21, N-(2,5-dimethylphenyl)-2,1,3-benzoxadiazole-4-sulfonamide] | ≥ 20 |  | 1 to 20 | 
8 | O=S(=O)(Nc1cccc(F)c1)c1cccc2nonc12 [compound 22, N-(3-fluorophenyl)-2,1,3-benzoxadiazole-4-sulfonamide] | ≥ 20 |  | ≥ 20 | 
9 | O=S(=O)(Nc1ccc(F)c(F)c1)c1cccc2nonc12 [compound 23, N-(3,4-difluorophenyl)-2,1,3-benzoxadiazole-4-sulfonamide] | ≥ 20 |  | ≥ 20 | 
10 | Cc1cc2cc(NS(=O)(=O)c3cccc4nonc34)ccc2[nH]1 [compound 24, N-(2-methyl-1H-indol-5-yl)-2,1,3-benzoxadiazole-4-sulfonamide] | 1 to 20 |  | 1 to 20 | 
11 | O=S(=O)(Nc1cc(F)ccc1F)c1cccc2nonc12 [compound 27, N-(2,5-difluorophenyl)-2,1,3-benzoxadiazole-4-sulfonamide] | ≥ 20 |  | ≥ 20 | 
12 | O=S(=O)(Nc1cccc(Cl)c1)c1cccc2nonc12 [compound 43, N-(3-chlorophenyl)-2,1,3-benzoxadiazole-4-sulfonamide] | 1 to 20 |  | ≥ 20 | 
13 | O=S(=O)(NCc1ccccn1)c1cccc2nonc12 [compound 49, N-(pyridin-2-ylmethyl)-2,1,3-benzoxadiazole-4-sulfonamide] | ≥ 20 |  | ≥ 20 | 
14 | COCCNS(=O)(=O)c1cccc2nonc12 [compound 50, N-(2-methoxyethyl)-2,1,3-benzoxadiazole-4-sulfonamide] | ≥ 20 |  | ≥ 20 | 
15 | COc1ccc(NS(=O)(=O)c2cccc3nonc23)cc1 [compound 51, N-(4-methoxyphenyl)-2,1,3-benzoxadiazole-4-sulfonamide] | ≥ 20 |  | ≥ 20 | 
16 | O=[N+]([O-])c1c(N2CCCCC2)cc(N2CCC3(CC2)OCc2ccccc23)c2nonc12 [compound 300, 1′-(7-nitro-6-piperidin-1-yl-2,1,3-benzoxadiazol-4-yl)-3H-spiro[2-benzofuran-1,4′-piperidine]] |  | ≥ 20 |  | 
17 | O=[N+]([O-])c1c(N2CCCCC2)cc(N2CCC(O)(c3ccccc3)CC2)c2nonc12 [compound 301, 1-(7-nitro-6-piperidin-1-yl-2,1,3-benzoxadiazol-4-yl)-4-phenylpiperidin-4-ol] |  | ≥ 20 |  | 
18 | O=C1OC2(CCN(c3ccc([N+](=O)[O-])c4nonc34)CC2)c2ccccc21 [compound 302, 1′-(7-nitro-2,1,3-benzoxadiazol-4-yl)-3H-spiro[2-benzofuran-1,4′-piperidin]-3-one] |  | 1 to 20 |  | 
19 | CCN(CC)c1cc(N2CCC3(CC2)OC(=O)c2ccccc23)c2nonc2c1[N+](=O)[O-] [compound 303, 1′-[6-(diethylamino)-7-nitro-2,1,3-benzoxadiazol-4-yl]-3H-spiro[2-benzofuran-1,4′-piperidin]-3-one] |  | ≥ 20 |  | 
20 | O=C1OC2(CCN(c3cc(N4CCCCC4)c([N+](=O)[O-])c4nonc34)CC2)c2ccccc21 [compound 304, 1′-(7-nitro-6-piperidin-1-yl-2,1,3-benzoxadiazol-4-yl)-3H-spiro[2-benzofuran-1,4′-piperidin]-3-one] |  | ≥ 20 |  | 
21 | FC(F)(F)c1cccc(-c2cccc3nonc23)c1 [compound 305, 4-[3-(Trifluoromethyl)phenyl]-2,1,3-benzoxadiazole] |  | ≥ 20 |  | 
22 | Cc1cccc(-c2cccc3nonc23)c1 [compound 306, 4-(3-Methylphenyl)-2,1,3-benzoxadiazole] |  | ≥ 20 |  | ≥ 20
23 | COC(=O)c1ccc(NS(=O)(=O)c2ccc(Sc3ccc4ccccc4n3)c3nonc23)cc1 [compound 316, Methyl 4-({[7-(quinolin-2-ylthio)-2,1,3-benzoxadiazol-4-yl]sulfonyl}amino)benzoate] |  | ≥ 20 |  | 
24 | COc1ccccc1-c1cc(Cl)c2nonc2c1 [compound 330, 4-Chloro-6-(2-methoxyphenyl)-2,1,3-benzoxadiazole] |  |  |  | ≥ 20
25 | O=[N+]([O-])c1cccc(-c2cc(Cl)c3nonc3c2)c1 [compound 331, 4-Chloro-6-(3-nitrophenyl)-2,1,3-benzoxadiazole] |  |  |  | ≥ 20

Source: patent US20050282818A1, “Ubiquitin ligase inhibitors” (Rigel Pharmaceuticals, Inc., priority 2004, published 2005)
